Assays:
[1] = test system: B16.F10 ELN melanoma cells; test: In vivo bioluminescence imaging of metastatic spread; design: species or system mouse; conditions: measured once weekly
Description: Metastatic spread was also measured once weekly by in vivo bioluminescence as described previously (Jantscheff, P. et al., Prostate 69:1151-1163 (2009)). Overlays of in vivo images and mouse photographs allowed to localize the metastatic lesions in lung and at the injection sites (D: black arrows) even in late images (D: day 14).

[2] = test system: P-selectin mediated interaction of B16.F10 cells with activated platelets; test: Binding of calcein-labeled TRAP-14 activated platelets to B16.F10 cells; assay type: cell-based, mouse; conditions: cells treated with 450 μM LysoPC for 48 h
Description: Platelet isolation: Platelets from blood of healthy volunteers were separated, routinely tested for viability, and activated by TRAP-14 (Bachem GmbH, Weil am Rhein, Germany) as recently described (Fritzsche, J. et al., Thromb. Haemost. 100:1166-1175 (2008)). Isolated platelets were stored at 37° C. in a water bath.
B) Binding of calcein-labeled TRAP-14 activated platelets to B16.F10 cells treated with 450 μM LysoPC for 48 h was analyzed by fluorescence microscopy. […] Data represent means±SD from three independent experiments. P, resting platelets; aP, activated platelets; LysoPC, LysoPC treated B16.F10 cells; Ab, Ig-matched control antibody.

[3] = test system: VCAM-1 Fc chimera; test: Flow cytometry, binding of soluble VCAM-1 Fc chimera; assay type: cell-based, mouse; conditions: repeatedly incubated with 450 μM LysoPC for 13 days
Description: FIG. 3: Impact of exogenous LysoPC on the surface expression of VLA-4 or VCAM-1- and P-selectin-ligands. (A) Surface expression of VLA-4 on B16.F10 cells treated with 450 μM LysoPC for 13 days was controlled by flow cytometric analysis. […] FACS histograms (A-C) show one representative of three independent experiments. In all experiments cells only incubated with the respective FITC-conjugated detection antibody served as control.

[4] = test system: B16.F10 cells; test: Fatty acid composition of cell lysates by GC analysis; assay type: cell-based, mouse
Description: Determination of fatty acid composition in cells and culture medium: Lipid extraction was performed according to the modified method of Bligh and Dyer (Bligh, E. G. and Dyer, W. J., Can. J. Biochem. Physiol. 37:911-917 (1959). For derivatization, the dried lipid extracts were subjected to methanol and TMSH and heated up to 100° C. for 10 min (Techne Dri Block DB-3D Techne, Stone, UK). Gas chromatography analysis was performed by an HP 5890 Series II Plus equipped with autosampler GC/SFC injector and flame ionisation detector (FID) with helium as carrier gas at 1 ml/min. Oven temperature program started with 150° C. for 3 min, up to 220° C. with a rate of 5° C./min, 220° C. for 3.5 min, split injection (split flow 100 ml/min, split ratio 1:100), 5 μl of injection volume, injector temperature 260° C. and FID at 280° C. on an Agilent DB-23 column (30 m, 0.25 mm ID, 0.25 μm). Integration of peak areas was performed with the HP software HP GC ChemStation (Rev.A.06.03[509]) running the GC system. Identification of peaks was accomplished by comparison to a fatty acid standard mixture.
Example 3: Cell membrane alterations induced by LysoPC treatment. In order to analyze membrane alterations caused by exogenous LysoPC the kinetics of changed fatty acid profiles of B16.F10 cells were evaluated by GC analysis. […] Between 48 h and 72 h, a plateau was apparently reached (C17:0: ˜55%). […]

Q: How did the “quantification of metastatic spread by in vivo bioluminescence, differences LysoPC-treated vs untreated” value [1] turn out when `CCCCCCCCCCCCCCCCC(=O)OC[C@@H](O)COP(=O)([O-])OCC[N+](C)(C)C` [LysoPC] was run?
A: could not confirm

Q: And the “interaction of B16.F10 cells with activated platelets” value [2]?
A: significantly (p<0.001) reduced P-selectin mediated interaction with activated platelets to the level of resting cells

Q: What about the “functionality of VLA-4 to interact with soluble VCAM-1-Fc chimera” value [3] of the same compound?
A: only slightly impaired

Q: And the “reduction of fatty acid ratio after replacing LysoPC medium” value ([4]; 48 h after incubation in LysoPC-free DMEM medium)?
A: 10-15%

Q: What about the “membrane composition on repeated feeding” value ([4]; repeated feeding (up to six times) every 48 h) of the same compound?
A: did not further change the membrane composition
